According to patent publication US6537948B1, “Uracil compounds and use thereof” (Sumitomo Chemical Company, Limited, priority 2000, dated 2003):

Experiments:
[1] = test system: velvetleaf (Abutilon theophrasti); assay: Test Example 1: foliar treatment of field; type: in vivo; conditions: foliar spray, dosage 125 g/ha, 16 days after application
Protocol: (§1) A cylindrical plastic pot having a diameter of 10 cm and a depth of 10 cm was filled with soil and then seeded with ivyleaf morningglory (Ipomoea hederacea) and velvetleaf (Abutilon theophrasti). These test plants were grown in a greenhouse for 10 days. Then, each of compounds 1-2, 1-42, 1-45, 1-48, 2-2, 2-7, 2-42, 2-45, 3-2, 3-12, 4-7, 4-85, 5-12-R, 5-12-S, 5-17, 6-2, 7-2, 7-6, 7-8, 7-12, 7-48, 7-50, 7-84, 7-118, 7-119, 7-125, 9-7, 9-27 and 9-45 was formulated into an emulsifiable concentrate according to Formulation Example 2 and then diluted to the prescribed amount with water containing a spreading agent and the dilution was uniformly sprayed over the foliage of the test plants with a sprayer at a rate of 1000 liters per hectare. After the application, the test plants were grown in the greenhouse for 16 days, and the herbicidal activity was determined.

[2] = test system: ivyleaf morningglory (Ipomoea hederacea); assay: Test Example 1: foliar treatment of field; type: in vivo; conditions: foliar spray, dosage 125 g/ha, 16 days after application
Protocol: as §1

[3] = test system: velvetleaf (Abutilon theophrasti); assay: Test Example 2: soil surface treatment of field; type: in vivo; conditions: soil surface spray, dosage 500 g/ha, 19 days after application
Excerpt: (§2) A cylindrical plastic pot having a diameter of 10 cm and a depth of 10 cm was filled with soil and then seeded with ivyleaf morningglory (Ipomoea hederacea) and velvetleaf (Abutilon theophrasti). Then, each of the compounds 1-2, 1-42, 1-48, 2-2, 2-7, 2-42, 2-45, 3-2, 3-12, 4-7, 4-85, 5-12-R, 5-12-S, 5-17, 6-2, 7-2, 7-6, 7-8, 7-12, 7-48, 7-50, 7-84, 7-118, 7-119, 7-125, 9-7, 9-27 and 9-45 was formulated into an emulsifiable concentrate according to Formulation Example 2 and then diluted to the prescribed amount with water, and the dilution was uniformly sprayed over the surface of the soil with a sprayer at a rate of 1000 liters per hectare. After the application, the test plants were grown in the greenhouse for 19 days, and the herbicidal activity was examined.

[4] = test system: ivyleaf morningglory (Ipomoea hederacea); assay: Test Example 2: soil surface treatment of field; type: in vivo; conditions: soil surface spray, dosage 500 g/ha, 19 days after application
Excerpt: as §2

COC(=O)COc1cncnc1Oc1cc(-n2c(=O)cc(C(F)(F)F)n(C)c2=O)c(F)cc1Cl [Compound 3-57, 4-{2-chloro-4-fluoro-5-[3-methyl-2,6-dioxo-4-(trifluoromethyl)-1,2,3,6-tetrahydropyrimidin-1-yl]phenoxy}-5-(methoxycarbonyl)methoxypyrimidine]
62.5 °C: melting point

COC(=O)C(C)Oc1cc(OC)nc(Oc2cc(-n3c(=O)cc(C(F)(F)F)n(C)c3=O)c(F)cc2Cl)n1 (stereo not drawn) [Compound 1-42, 2-{2-chloro-4-fluoro-5-[3-methyl-2,6-dioxo-4-(trifluoromethyl)-1,2,3,6-tetrahydropyrimidin-1-yl]phenoxy}-6-methoxy-4-{1-(methoxycarbonyl)ethoxy}pyrimidine]
71.2 °C: melting point
completely controlled: growth of velvetleaf (herbicidal activity) [1] | growth of ivyleaf morningglory (herbicidal activity) [2] | growth of velvetleaf (herbicidal activity) [3] | growth of ivyleaf morningglory (herbicidal activity) [4]

COC(=O)COc1ncncc1Oc1cc(-n2c(=O)cc(C(F)(F)F)n(C)c2=O)c(F)cc1Cl [Compound 4-7, 5-{2-chloro-4-fluoro-5-[3-methyl-2,6-dioxo-4-(trifluoromethyl)-1,2,3,6-tetrahydropyrimidin-1-yl]phenoxy}-4-(methoxycarbonyl)methoxypyrimidine]
52.5 °C: melting point
completely controlled: growth of velvetleaf (herbicidal activity) [1] | growth of ivyleaf morningglory (herbicidal activity) [2] | growth of velvetleaf (herbicidal activity) [3] | growth of ivyleaf morningglory (herbicidal activity) [4]

COC(=O)COc1ncccc1Oc1cc(-n2c(=O)cc(C(F)(F)F)n(C)c2=O)c(F)cc1C#N [Compound 9-27, 3-{2-cyano-4-fluoro-5-[3-methyl-2,6-dioxo-4-(trifluoromethyl)-1,2,3,6-tetrahydropyrimidin-1-yl]phenoxy}-2-(methoxycarbonyl)methoxypyridine]
173.1 °C: melting point
completely controlled: growth of velvetleaf (herbicidal activity) [1] | growth of ivyleaf morningglory (herbicidal activity) [2] | growth of velvetleaf (herbicidal activity) [3] | growth of ivyleaf morningglory (herbicidal activity) [4]

COC(=O)C(C)Oc1ccnc(Sc2cc(-n3c(=O)cc(C(F)(F)F)n(C)c3=O)c(F)cc2Cl)n1 (stereo not drawn) [Compound 6-2, methyl 2-([2-{2-chloro-4-fluoro-5-[3-methyl-2,6-dioxo-4-(trifluoromethyl)-1,2,3,6-tetrahydropyrimidin-1-yl]phenylthio}pyrimidin-4-yl]oxy}propionate]
60.2 °C: melting point
completely controlled: growth of velvetleaf (herbicidal activity) [1] | growth of ivyleaf morningglory (herbicidal activity) [2] | growth of velvetleaf (herbicidal activity) [3] | growth of ivyleaf morningglory (herbicidal activity) [4]

COC(=O)COC(=O)COc1ncccc1Oc1cc(-n2c(=O)cc(C(F)(F)F)n(C)c2=O)c(F)cc1Cl [Compound 7-119, 3-{2-chloro-4-fluoro-5-[3-methyl-2,6-dioxo-4-(trifluoromethyl)-1,2,3,6-tetrahydropyrimidin-1-yl]phenoxy}-2-[(methoxycarbonyl)methoxycarbonylmethoxy]pyridine]
completely controlled: growth of velvetleaf (herbicidal activity) [1] | growth of ivyleaf morningglory (herbicidal activity) [2] | growth of velvetleaf (herbicidal activity) [3] | growth of ivyleaf morningglory (herbicidal activity) [4]

COC(=O)C(C)Oc1cc(Oc2cc(-n3c(=O)cc(C(F)(F)F)n(C)c3=O)c(F)cc2Cl)ncn1 (stereo not drawn) [Compound 3-12, methyl 2-([4-{2-chloro-4-fluoro-5-[3-methyl-2,6-dioxo-4-(trifluoromethyl)-1,2,3,6-tetrahydropyrimidin-1-yl]phenoxy}pyrimidin-6-yl]oxy)propionate]
completely controlled: growth of velvetleaf (herbicidal activity) [1] | growth of ivyleaf morningglory (herbicidal activity) [2] | growth of velvetleaf (herbicidal activity) [3] | growth of ivyleaf morningglory (herbicidal activity) [4]

COC(=O)COc1n[nH]c(C)c1Oc1cc(-n2c(=O)cc(C(F)(F)F)n(C)c2=O)c(F)cc1Cl [Compound 5-17, 3-(methoxycarbonyl)methoxy-4-{2-chloro-4-fluoro-5-[3-methyl-2,6-dioxo-4-(trifluoromethyl)-1,2,3,6-tetrahydropyrimidin-1-yl]phenoxy}-5-methylpyrazole]
completely controlled: growth of velvetleaf (herbicidal activity) [1] | growth of ivyleaf morningglory (herbicidal activity) [2] | growth of velvetleaf (herbicidal activity) [3] | growth of ivyleaf morningglory (herbicidal activity) [4]

CCCOC(=O)COc1ncccc1Oc1cc(-n2c(=O)cc(C(F)(F)F)n(C)c2=O)c(F)cc1Cl [Compound 7-48, 3-{2-chloro-4-fluoro-5-[3-methyl-2,6-dioxo-4-(trifluoromethyl)-1,2,3,6-tetrahydropyrimidin-1-yl]phenoxy}-2-(n-propoxycarbonyl)methoxypyridine]
completely controlled: growth of velvetleaf (herbicidal activity) [1] | growth of ivyleaf morningglory (herbicidal activity) [2] | growth of velvetleaf (herbicidal activity) [3] | growth of ivyleaf morningglory (herbicidal activity) [4]

COC(=O)COc1nc(C)ncc1Oc1cc(-n2c(=O)cc(C(F)(F)F)n(C)c2=O)c(F)cc1Cl [Compound 4-85, 5-{2-chloro-4-fluoro-5-[3-methyl-2,6-dioxo-4-(trifluoromethyl)-1,2,3,6-tetrahydropyrimidin-1-yl]phenoxy}-4-(methoxycarbonyl)methoxy-2-methylpyrimidine]
completely controlled: growth of velvetleaf (herbicidal activity) [1] | growth of ivyleaf morningglory (herbicidal activity) [2] | growth of velvetleaf (herbicidal activity) [3] | growth of ivyleaf morningglory (herbicidal activity) [4]

CC(C)=NOC(=O)COc1ncccc1Oc1cc(-n2c(=O)cc(C(F)(F)F)n(C)c2=O)c(F)cc1Cl [Compound 7-118, 3-{2-chloro-4-fluoro-5-[3-methyl-2,6-dioxo-4-(trifluoromethyl)-1,2,3,6-tetrahydropyrimidin-1-yl]phenoxy}-2-isopropylidenaminoxycarbonylmethoxypyridine]
completely controlled: growth of velvetleaf (herbicidal activity) [1] | growth of ivyleaf morningglory (herbicidal activity) [2] | growth of velvetleaf (herbicidal activity) [3] | growth of ivyleaf morningglory (herbicidal activity) [4]

CCOC(=O)COc1ncccc1Oc1cc(-n2c(=O)cc(C(F)(F)F)n(C)c2=O)c(F)cc1Cl [Compound 7-8, 3-{2-chloro-4-fluoro-5-[3-methyl-2,6-dioxo-4-(trifluoromethyl)-1,2,3,6-tetrahydropyrimidin-1-yl]phenoxy}-2-(ethoxycarbonyl)methoxypyridine]
completely controlled: growth of velvetleaf (herbicidal activity) [1] | growth of ivyleaf morningglory (herbicidal activity) [2] | growth of velvetleaf (herbicidal activity) [3] | growth of ivyleaf morningglory (herbicidal activity) [4]

COC(=O)C(C)Oc1ncccc1Oc1cc(-n2c(=O)cc(C(F)(F)F)n(C)c2=O)c(F)cc1Cl (stereo not drawn) [Compound 7-2, 3-{2-chloro-4-fluoro-5-[3-methyl-2,6-dioxo-4-(trifluoromethyl)-1,2,3,6-tetrahydropyrimidin-1-yl]phenoxy}-2-{1-(methoxycarbonyl)ethoxy} pyridine]
completely controlled: growth of velvetleaf (herbicidal activity) [1] | growth of ivyleaf morningglory (herbicidal activity) [2] | growth of velvetleaf (herbicidal activity) [3] | growth of ivyleaf morningglory (herbicidal activity) [4]

CONC(=O)COc1ncccc1Oc1cc(-n2c(=O)cc(C(F)(F)F)n(C)c2=O)c(F)cc1Cl [Compound 7-84, 3-{2-chloro-4-fluoro-5-[3-methyl-2,6-dioxo-4-(trifluoromethyl)-1,2,3,6-tetrahydropyrimidin-1-yl]phenoxy}-2-[(methoxyaminocarbonyl)methoxy]pyridine]
completely controlled: growth of velvetleaf (herbicidal activity) [1] | growth of ivyleaf morningglory (herbicidal activity) [2] | growth of velvetleaf (herbicidal activity) [3] | growth of ivyleaf morningglory (herbicidal activity) [4]
